# In patent publication US20230052453A1, “COMPOSITIONS AND METHODS FOR RELIEVING EFFECTS OF ALCOHOL CONSUMPTION” (MOXY DISTRIBUTION, INC., priority 2021, published 2023):
# How the values were obtained:
# [1] = Blood alcohol content (BAC) of participants after alcoholic drinks; type: in vivo, human; details: half dose 30 minutes prior to drinking
# Method: Participants were also administered a verbal processing test.
# The differential in blood alcohol content between the participants receiving DHM and nicotinamide mononucleotide and emoxypine succinate and the participants in control group were substantial as show in Table 1.
# [2] = test system: alcohol dehydrogenase (ADH) and acetaldehyde dehydrogenase (ALDH); details: cited from earlier work
# [3] = cited from earlier work
smiles,measurement,setting,value
"O=C1c2c(O)cc(O)cc2O[C@H](c2cc(O)c(O)c(O)c2)[C@H]1O [DHM, (2R,3R)-3,5,7-trihydroxy-2-(3,4,5-trihydroxyphenyl)-2,3-dihydrochromen-4-one]",MEAN BAC LEVELS,"[1]; elapsed time 00 h 15 m, cumulative drinks 1",0.022%
same,MEAN BAC LEVELS,"[1]; elapsed time 00 h 45 m, cumulative drinks 2",0.051%
same,MEAN BAC LEVELS,"[1]; elapsed time 01 h 15 m, cumulative drinks 3",0.062%
same,MEAN BAC LEVELS,"[1]; elapsed time 01 h 45 m, cumulative drinks 4",0.087%
same,MEAN BAC LEVELS,"[1]; elapsed time 02 h 15 m, cumulative drinks 5",0.109%
same,MEAN BAC LEVELS,"[1]; elapsed time 02 h 45 m, cumulative drinks 6",0.131%
same,alcohol (EtOH) elimination,[2]; by increasing the activities of ADH and ALDH,promotes alcohol (EtOH) elimination
same,alcohol-induced liver injuries,[2]; in vivo,ameliorates alcohol-induced liver injuries
same,time required to reach peak plasma concentration,[3]; after oral administration at a dose of 20 mg/kg,2.67 h
same,bioavailability after oral administration,"[3]; rats, oral",4.02%
